Key:
Assay in all cases: relative viability (nuclei count vs DMSO), 5 days (fraction); higher = more cells survive
Wnt-C59 + Tozasertib = compound: CC1=NC=CC(=C1)C2=CC=C(C=C2)CC(=O)NC3=CC=C(C=C3)C4=CN=CC=C4 [Wnt-C59] + Cc1cc(Nc2cc(N3CCN(C)CC3)nc(Sc3ccc(NC(=O)C4CC4)cc3)n2)n[nH]1 [Tozasertib] (partner 0.1 µM)
Procedure, shortened: (§1)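 Cells from lung cancer lines were seeded into 1536-well plates and, one day later, dosed by pin tool. Treatments were either a single drug or a fixed dose of an anchor drug with five library-drug doses (not always all listed) in √10 steps. After 5 days, nuclei were stained in a one-step fixation (final 0.05% Triton X-100, 1% formaldehyde, 1 ug/ml Hoechst) and counted on 4× images, and relative viability is the treated-to-vehicle nuclei ratio, as the median of duplicate plates.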

Wnt-C59 + Dasatinib = compound: CC1=NC=CC(=C1)C2=CC=C(C=C2)CC(=O)NC3=CC=C(C=C3)C4=CN=CC=C4 [Wnt-C59] + Cc1nc(Nc2ncc(C(=O)Nc3c(C)cccc3Cl)s2)cc(N2CCN(CCO)CC2)n1 [Dasatinib] (partner 0.075 µM)
Procedure, shortened: as §1

Lapatinib + Crizotinib = compound: CS(=O)(=O)CCNCc1ccc(-c2ccc3ncnc(Nc4ccc(OCc5cccc(F)c5)c(Cl)c4)c3c2)o1 [Lapatinib] + C[C@@H](Oc1cc(-c2cnn(C3CCNCC3)c2)cnc1N)c1c(Cl)ccc(F)c1Cl [Crizotinib] (partner 1 µM)
Procedure, shortened: as §1

Lapatinib + Vorinostat = compound: CS(=O)(=O)CCNCc1ccc(-c2ccc3ncnc(Nc4ccc(OCc5cccc(F)c5)c(Cl)c4)c3c2)o1 [Lapatinib] + O=C(CCCCCCC(=O)Nc1ccccc1)NO [Vorinostat] (partner 1 µM)
Procedure, shortened: as §1

Row | Cell Line | relative viability (Wnt-C59 + Tozasertib; first compound 0.001 µM) | relative viability (Wnt-C59 + Tozasertib; first compound 0.01 µM) | relative viability (Wnt-C59 + Tozasertib; first compound 0.03162 µM) | relative viability (Wnt-C59 + Tozasertib; first compound 0.1 µM) | relative viability (Wnt-C59 + Dasatinib; first compound 0.001 µM) | relative viability (Wnt-C59 + Dasatinib; first compound 0.01 µM) | relative viability (Wnt-C59 + Dasatinib; first compound 0.03162 µM) | relative viability (Wnt-C59 + Dasatinib; first compound 0.1 µM) | relative viability (Lapatinib + Crizotinib; first compound 0.02 µM) | relative viability (Lapatinib + Crizotinib; first compound 0.06325 µM) | relative viability (Lapatinib + Crizotinib; first compound 0.2 µM) | relative viability (Lapatinib + Crizotinib; first compound 0.6325 µM) | relative viability (Lapatinib + Crizotinib; first compound 2 µM) | relative viability (Lapatinib + Vorinostat; first compound 0.02 µM) | relative viability (Lapatinib + Vorinostat; first compound 0.06325 µM) | relative viability (Lapatinib + Vorinostat; first compound 0.2 µM) | relative viability (Lapatinib + Vorinostat; first compound 0.6325 µM) | relative viability (Lapatinib + Vorinostat; first compound 2 µM)
1 | 201T | 0.96 | 0.923 | 1.05 | 0.952 | 0.615 | 0.578 | 0.505 | 0.558 | 0.869 | 0.996 | 1.02 | 0.966 | 0.977 | 0.48 | 0.78 | 0.89 | 0.938 | 0.854
2 | A549 |  |  |  |  |  |  |  |  | 0.735 | 0.675 | 0.73 | 0.674 | 0.616 |  |  |  |  | 
3 | A-427 | 0.217 | 0.183 | 0.211 | 0.243 | 0.71 | 0.682 | 0.768 | 0.798 |  | 0.804 | 0.945 | 0.936 | 0.77 | 0.839 | 0.841 | 0.862 | 0.833 | 0.845
4 | ABC-1 | 0.15 | 0.166 | 0.164 | 0.19 | 0.509 | 0.605 | 0.506 | 0.592 |  | 0.928 | 1.32 | 1.22 | 0.967 | 0.929 | 1.02 |  | 1 | 1.18
5 | BEN | 0.478 | 0.474 | 0.497 | 0.501 | 0.329 | 0.3 | 0.35 | 0.385 | 0.826 | 0.672 | 1.06 | 0.828 | 0.747 | 0.506 | 0.587 | 0.586 | 0.559 | 0.51
6 | CAL-12T | 0.47 | 0.335 | 0.349 | 0.263 | 0.505 | 0.391 | 0.475 | 0.437 | 0.593 | 0.59 | 0.575 | 0.57 | 0.326 | 0.655 | 0.624 | 0.755 | 0.71 | 0.424
7 | COR-L23 | 0.202 | 0.237 | 0.233 | 0.19 | 0.483 | 0.571 | 0.641 | 0.413 | 0.71 | 0.676 | 0.697 | 0.602 | 0.581 | 0.422 | 0.522 | 0.558 | 0.553 | 0.393
8 | COR-L 105 | 0.297 | 0.332 | 0.371 | 0.437 | 0.275 | 0.357 | 0.308 | 0.304 | 0.727 | 0.635 | 0.639 | 0.58 | 0.279 | 0.773 | 0.825 | 0.779 | 0.42 | 0.589
9 | Calu-6 |  |  |  |  |  |  |  |  | 0.846 | 0.801 | 0.909 | 0.763 | 0.753 |  |  |  |  | 
10 | ChaGo-K-1 | 0.221 | 0.233 | 0.242 | 0.223 | 0.659 | 0.606 | 0.65 | 0.606 |  | 1.07 | 1.19 | 1.09 | 1.09 | 0.53 | 0.731 | 0.747 | 0.78 | 0.545
11 | EBC-1 |  |  |  |  |  |  |  |  | 0.181 | 0.179 | 0.178 | 0.174 | 0.18 |  |  |  |  | 
12 | EKVX | 0.437 | 0.357 | 0.406 | 0.402 | 0.575 | 0.511 | 0.527 | 0.451 | 0.868 | 0.68 | 0.89 | 0.647 | 0.214 |  | 0.476 | 0.48 | 0.426 | 0.26
13 | EMC-BAC-2 | 0.341 | 0.274 | 0.322 | 0.306 | 0.327 | 0.36 | 0.34 | 0.341 | 0.729 | 0.635 | 0.788 | 0.661 | 0.74 |  | 0.336 |  | 0.531 | 0.522
14 | EPLC-272H | 0.297 | 0.25 | 0.362 | 0.276 | 0.399 | 0.269 | 0.399 | 0.36 |  | 0.722 | 0.831 | 0.79 | 0.639 | 0.636 | 0.328 | 0.457 | 0.583 | 0.391
15 | H3255 | 0.715 | 0.616 | 0.626 | 0.63 | 0.425 | 0.359 | 0.32 | 0.335 | 0.752 | 0.687 | 0.888 | 0.702 | 0.311 |  | 0.697 | 0.741 | 0.816 | 0.293
16 | HARA | 0.103 | 0.135 | 0.151 | 0.088 | 0.249 | 0.208 | 0.293 | 0.32 | 1.04 | 1.28 | 0.932 | 0.934 | 0.447 |  | 0.452 | 0.443 | 0.467 | 0.427
17 | HCC-15 | 0.407 | 0.389 | 0.322 | 0.44 | 0.667 | 0.634 | 0.644 | 0.574 |  | 0.786 | 0.808 | 0.835 | 0.704 |  | 0.779 | 0.813 | 0.858 | 0.693
18 | HCC-44 | 1.12 | 0.909 | 0.976 | 0.864 |  |  |  |  | 0.747 | 0.743 | 0.837 | 0.802 | 0.675 | 1.07 | 1.11 | 1.16 | 1.16 | 0.916
19 | HCC-78 | 0.492 | 0.404 | 0.504 | 0.441 | 0.392 | 0.428 | 0.387 | 0.419 |  | 0.236 | 0.315 | 0.297 | 0.229 |  | 0.318 | 0.39 | 0.388 | 0.375
20 | HCC-366 | 0.156 | 0.102 | 0.111 | 0.124 | 0.678 | 0.621 | 0.594 | 0.487 |  | 0.418 | 0.713 | 0.564 | 0.372 |  | 0.275 | 0.391 | 0.352 | 0.202
21 | HCC-827 | 0.45 | 0.427 | 0.374 | 0.443 | 0.386 | 0.305 | 0.366 | 0.428 | 0.915 | 0.944 | 0.923 | 0.88 | 0.513 | 0.76 | 0.868 | 0.706 | 0.802 | 0.869

From the supplement of paper PMC10307832
